According to ChEMBL document CHEMBL1150977, “A quantitative analysis of kinase inhibitor selectivity” (Nat Biotechnol, 2008):

Legend:
[1] = target: MAP/microtubule affinity-regulating kinase 3 (Homo sapiens, UniProt P27448)
[2] = target: Death-associated protein kinase 1 (Homo sapiens, UniProt P53355)
[3] = target: Casein kinase II subunit alpha' (Homo sapiens, UniProt P19784)
[4] = target: T1, Serine/threonine-protein kinase BRSK1 (Homo sapiens, UniProt Q8TDC3)
T1 sequence (Q8TDC3 whole entry): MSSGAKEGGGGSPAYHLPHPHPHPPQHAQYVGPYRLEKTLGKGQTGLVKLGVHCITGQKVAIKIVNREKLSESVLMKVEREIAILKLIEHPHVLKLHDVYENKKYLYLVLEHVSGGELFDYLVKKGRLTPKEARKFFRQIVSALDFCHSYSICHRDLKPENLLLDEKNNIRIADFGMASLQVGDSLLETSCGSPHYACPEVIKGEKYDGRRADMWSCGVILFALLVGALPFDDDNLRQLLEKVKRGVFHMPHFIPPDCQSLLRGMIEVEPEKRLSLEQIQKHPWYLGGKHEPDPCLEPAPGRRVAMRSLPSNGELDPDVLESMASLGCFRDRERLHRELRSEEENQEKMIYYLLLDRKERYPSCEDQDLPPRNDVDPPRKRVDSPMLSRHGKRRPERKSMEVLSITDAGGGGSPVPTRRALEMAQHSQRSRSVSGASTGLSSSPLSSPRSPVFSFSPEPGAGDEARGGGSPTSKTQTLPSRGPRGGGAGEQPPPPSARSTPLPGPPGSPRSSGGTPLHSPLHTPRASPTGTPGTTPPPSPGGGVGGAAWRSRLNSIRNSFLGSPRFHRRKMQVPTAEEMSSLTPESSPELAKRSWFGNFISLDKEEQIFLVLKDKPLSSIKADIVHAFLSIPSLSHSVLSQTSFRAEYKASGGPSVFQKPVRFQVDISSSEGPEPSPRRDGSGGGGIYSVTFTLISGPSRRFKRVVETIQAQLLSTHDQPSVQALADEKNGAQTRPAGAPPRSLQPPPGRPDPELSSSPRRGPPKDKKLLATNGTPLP

[5] = target: Mitogen-activated protein kinase kinase kinase 9 (Homo sapiens, UniProt P80192)
[6] = target: T2, Serine/threonine-protein kinase DCLK1 (Homo sapiens, UniProt O15075)
T2 sequence (O15075 whole entry): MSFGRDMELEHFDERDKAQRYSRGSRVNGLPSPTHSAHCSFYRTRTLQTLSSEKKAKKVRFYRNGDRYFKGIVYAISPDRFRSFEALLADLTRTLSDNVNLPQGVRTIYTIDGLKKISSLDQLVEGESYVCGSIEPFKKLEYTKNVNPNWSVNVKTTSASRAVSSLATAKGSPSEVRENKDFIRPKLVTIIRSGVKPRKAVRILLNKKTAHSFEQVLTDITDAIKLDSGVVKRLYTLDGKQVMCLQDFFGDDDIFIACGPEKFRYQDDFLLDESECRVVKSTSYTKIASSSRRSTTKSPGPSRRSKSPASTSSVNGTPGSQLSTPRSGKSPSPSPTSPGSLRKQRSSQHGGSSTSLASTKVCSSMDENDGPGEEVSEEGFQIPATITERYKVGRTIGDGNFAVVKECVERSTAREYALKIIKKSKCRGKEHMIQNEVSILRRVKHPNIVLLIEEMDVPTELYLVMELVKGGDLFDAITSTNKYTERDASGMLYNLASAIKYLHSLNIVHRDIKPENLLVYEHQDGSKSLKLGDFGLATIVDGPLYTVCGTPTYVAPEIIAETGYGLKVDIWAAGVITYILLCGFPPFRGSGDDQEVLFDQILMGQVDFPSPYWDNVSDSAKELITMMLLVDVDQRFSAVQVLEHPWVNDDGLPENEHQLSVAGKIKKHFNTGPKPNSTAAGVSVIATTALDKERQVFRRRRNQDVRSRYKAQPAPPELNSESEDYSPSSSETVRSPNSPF

[7] = target: Serine/threonine-protein kinase N2 (Homo sapiens, UniProt Q16513)
[8] = target: Protein-tyrosine kinase 6 (Homo sapiens, UniProt Q13882)
[9] = target: 5'-AMP-activated protein kinase catalytic subunit alpha-2 (Homo sapiens, UniProt P54646)
[10] = target: Casein kinase I isoform epsilon (Homo sapiens, UniProt P49674)
Casein kinase I isoform epsilon, sequence (P49674 whole entry, canonical isoform): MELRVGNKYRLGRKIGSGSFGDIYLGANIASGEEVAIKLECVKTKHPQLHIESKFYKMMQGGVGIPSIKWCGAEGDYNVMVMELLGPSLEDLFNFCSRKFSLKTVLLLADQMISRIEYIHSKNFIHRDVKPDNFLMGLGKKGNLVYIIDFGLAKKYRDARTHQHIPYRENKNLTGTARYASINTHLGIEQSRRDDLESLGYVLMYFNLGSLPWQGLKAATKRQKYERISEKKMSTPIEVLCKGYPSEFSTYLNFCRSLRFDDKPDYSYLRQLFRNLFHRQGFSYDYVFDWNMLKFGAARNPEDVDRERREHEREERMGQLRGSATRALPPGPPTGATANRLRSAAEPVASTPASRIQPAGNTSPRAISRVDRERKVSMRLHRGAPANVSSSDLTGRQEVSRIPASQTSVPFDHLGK

Serine/threonine-protein kinase N2, sequence (Q16513 whole entry): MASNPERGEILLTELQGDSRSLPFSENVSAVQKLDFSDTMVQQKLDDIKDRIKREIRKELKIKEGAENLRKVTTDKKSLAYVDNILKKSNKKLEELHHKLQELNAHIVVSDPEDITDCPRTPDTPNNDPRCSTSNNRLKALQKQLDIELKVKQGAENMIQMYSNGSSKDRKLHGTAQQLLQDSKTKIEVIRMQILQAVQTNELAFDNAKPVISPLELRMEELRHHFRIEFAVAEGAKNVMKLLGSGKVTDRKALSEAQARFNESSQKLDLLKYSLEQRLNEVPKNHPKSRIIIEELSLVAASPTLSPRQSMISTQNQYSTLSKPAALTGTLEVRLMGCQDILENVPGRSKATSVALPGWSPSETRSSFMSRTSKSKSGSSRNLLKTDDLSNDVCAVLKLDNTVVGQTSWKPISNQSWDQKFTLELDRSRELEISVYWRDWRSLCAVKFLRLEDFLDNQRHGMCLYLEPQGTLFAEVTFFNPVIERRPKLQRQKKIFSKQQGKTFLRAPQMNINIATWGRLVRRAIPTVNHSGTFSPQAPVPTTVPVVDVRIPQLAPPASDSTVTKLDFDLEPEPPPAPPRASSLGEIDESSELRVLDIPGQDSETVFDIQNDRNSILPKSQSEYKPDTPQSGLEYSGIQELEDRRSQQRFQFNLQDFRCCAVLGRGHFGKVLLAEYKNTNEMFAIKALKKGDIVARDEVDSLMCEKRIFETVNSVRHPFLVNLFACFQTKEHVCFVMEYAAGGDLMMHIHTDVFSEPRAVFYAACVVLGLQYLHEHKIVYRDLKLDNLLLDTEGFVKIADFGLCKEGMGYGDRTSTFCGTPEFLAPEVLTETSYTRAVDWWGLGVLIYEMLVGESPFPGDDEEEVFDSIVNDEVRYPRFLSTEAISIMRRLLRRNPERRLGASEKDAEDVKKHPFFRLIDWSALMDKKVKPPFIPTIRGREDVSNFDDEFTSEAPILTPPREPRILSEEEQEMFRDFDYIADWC
MAP/microtubule affinity-regulating kinase 3, sequence (P27448 whole entry): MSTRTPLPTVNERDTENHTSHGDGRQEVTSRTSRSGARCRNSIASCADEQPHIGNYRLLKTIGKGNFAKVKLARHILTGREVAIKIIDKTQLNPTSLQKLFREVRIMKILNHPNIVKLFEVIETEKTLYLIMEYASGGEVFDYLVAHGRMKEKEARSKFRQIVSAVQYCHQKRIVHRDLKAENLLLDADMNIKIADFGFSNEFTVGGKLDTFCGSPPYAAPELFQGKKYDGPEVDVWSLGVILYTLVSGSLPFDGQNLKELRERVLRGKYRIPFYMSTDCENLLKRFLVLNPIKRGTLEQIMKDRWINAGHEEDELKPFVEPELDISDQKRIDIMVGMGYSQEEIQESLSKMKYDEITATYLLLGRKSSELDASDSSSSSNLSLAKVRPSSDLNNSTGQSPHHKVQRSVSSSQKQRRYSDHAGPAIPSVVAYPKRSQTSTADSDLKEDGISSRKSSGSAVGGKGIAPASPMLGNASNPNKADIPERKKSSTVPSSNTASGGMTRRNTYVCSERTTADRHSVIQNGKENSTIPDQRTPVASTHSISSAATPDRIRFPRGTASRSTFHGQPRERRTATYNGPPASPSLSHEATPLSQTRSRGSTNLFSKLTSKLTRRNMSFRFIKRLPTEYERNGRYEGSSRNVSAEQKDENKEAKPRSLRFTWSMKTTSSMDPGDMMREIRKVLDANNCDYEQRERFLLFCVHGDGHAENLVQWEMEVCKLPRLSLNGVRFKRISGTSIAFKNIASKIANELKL
Death-associated protein kinase 1, sequence (P53355 whole entry): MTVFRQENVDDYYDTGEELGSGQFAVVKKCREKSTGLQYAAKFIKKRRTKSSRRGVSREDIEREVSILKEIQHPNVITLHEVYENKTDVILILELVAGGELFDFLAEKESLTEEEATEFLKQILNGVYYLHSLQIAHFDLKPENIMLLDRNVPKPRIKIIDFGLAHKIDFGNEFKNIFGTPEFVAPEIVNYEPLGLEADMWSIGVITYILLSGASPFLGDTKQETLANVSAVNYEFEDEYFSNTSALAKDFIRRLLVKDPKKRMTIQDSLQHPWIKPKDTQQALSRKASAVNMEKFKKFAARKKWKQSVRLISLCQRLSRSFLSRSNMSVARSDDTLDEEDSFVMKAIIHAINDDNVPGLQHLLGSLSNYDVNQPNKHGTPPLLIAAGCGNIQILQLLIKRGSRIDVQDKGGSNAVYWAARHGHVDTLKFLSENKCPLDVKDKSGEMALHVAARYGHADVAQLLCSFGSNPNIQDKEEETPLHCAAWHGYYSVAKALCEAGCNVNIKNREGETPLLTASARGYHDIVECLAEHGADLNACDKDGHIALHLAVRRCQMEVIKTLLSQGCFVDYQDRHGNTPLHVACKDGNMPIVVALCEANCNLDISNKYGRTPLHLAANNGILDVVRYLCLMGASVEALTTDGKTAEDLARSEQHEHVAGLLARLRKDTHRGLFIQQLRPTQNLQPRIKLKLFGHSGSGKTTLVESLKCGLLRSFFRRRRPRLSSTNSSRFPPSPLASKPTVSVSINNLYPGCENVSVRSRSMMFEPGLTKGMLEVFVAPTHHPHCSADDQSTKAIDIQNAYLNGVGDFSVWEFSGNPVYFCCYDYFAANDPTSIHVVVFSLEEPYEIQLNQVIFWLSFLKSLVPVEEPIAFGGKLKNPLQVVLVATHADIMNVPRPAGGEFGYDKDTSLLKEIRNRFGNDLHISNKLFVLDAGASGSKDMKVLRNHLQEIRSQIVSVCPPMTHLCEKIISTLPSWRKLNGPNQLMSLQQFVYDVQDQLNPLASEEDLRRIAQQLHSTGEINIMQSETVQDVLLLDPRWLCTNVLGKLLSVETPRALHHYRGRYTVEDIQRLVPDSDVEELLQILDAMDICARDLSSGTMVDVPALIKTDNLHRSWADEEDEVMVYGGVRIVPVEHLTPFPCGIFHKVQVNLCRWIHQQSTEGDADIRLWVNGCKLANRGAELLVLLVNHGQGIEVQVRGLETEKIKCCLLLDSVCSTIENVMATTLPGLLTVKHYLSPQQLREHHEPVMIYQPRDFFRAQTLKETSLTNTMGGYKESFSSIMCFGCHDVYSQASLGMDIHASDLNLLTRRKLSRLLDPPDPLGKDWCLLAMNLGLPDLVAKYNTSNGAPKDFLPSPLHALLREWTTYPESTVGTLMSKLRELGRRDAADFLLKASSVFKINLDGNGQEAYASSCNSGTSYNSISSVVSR
Casein kinase II subunit alpha', sequence (P19784 whole entry): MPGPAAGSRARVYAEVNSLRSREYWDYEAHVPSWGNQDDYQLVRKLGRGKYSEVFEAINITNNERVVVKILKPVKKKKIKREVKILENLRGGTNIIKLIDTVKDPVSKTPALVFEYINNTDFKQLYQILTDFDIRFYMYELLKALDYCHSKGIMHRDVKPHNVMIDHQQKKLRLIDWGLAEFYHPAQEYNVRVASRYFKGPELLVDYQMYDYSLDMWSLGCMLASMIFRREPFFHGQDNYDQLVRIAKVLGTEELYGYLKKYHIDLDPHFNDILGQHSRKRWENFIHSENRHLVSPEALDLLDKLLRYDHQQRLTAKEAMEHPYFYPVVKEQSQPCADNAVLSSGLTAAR
5'-AMP-activated protein kinase catalytic subunit alpha-2, sequence (P54646 whole entry, canonical isoform): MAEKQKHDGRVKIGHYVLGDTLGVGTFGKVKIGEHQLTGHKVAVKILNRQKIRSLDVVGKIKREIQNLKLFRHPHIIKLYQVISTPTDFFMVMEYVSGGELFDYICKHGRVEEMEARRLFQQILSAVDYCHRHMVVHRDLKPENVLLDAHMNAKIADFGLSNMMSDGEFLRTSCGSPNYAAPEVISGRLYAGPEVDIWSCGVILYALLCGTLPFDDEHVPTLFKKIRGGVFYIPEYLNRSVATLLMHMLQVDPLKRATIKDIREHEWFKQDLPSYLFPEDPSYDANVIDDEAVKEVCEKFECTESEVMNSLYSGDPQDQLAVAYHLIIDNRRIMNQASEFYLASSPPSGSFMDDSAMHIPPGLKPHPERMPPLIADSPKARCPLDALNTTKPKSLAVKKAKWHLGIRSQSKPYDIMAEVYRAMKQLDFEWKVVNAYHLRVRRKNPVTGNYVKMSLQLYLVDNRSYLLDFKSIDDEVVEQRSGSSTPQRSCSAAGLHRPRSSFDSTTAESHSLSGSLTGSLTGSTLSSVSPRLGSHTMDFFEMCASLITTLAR
Protein-tyrosine kinase 6, sequence (Q13882 whole entry): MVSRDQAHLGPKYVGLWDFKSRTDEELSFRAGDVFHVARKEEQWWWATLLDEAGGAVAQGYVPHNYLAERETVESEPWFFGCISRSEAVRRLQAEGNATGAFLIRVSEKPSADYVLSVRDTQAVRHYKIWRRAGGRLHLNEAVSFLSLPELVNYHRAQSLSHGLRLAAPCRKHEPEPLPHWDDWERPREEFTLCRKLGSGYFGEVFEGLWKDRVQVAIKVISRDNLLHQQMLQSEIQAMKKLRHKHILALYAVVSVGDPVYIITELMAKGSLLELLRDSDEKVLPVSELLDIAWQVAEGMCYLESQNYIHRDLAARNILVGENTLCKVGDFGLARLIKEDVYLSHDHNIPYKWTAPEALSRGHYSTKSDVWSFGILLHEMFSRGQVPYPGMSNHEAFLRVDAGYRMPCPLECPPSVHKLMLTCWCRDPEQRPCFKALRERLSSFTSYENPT

COCC(=O)NC/C=C/c1ccc2ncnc(Nc3ccc(Oc4ccc(C)nc4)c(C)c3)c2c1 [CP-724714] was tested. Which Kd [1] did it give?
Its Kd is > 10 µM.

And the Kd [2]?
The Kd was > 10 µM.

And the Kd [3]?
The Kd was > 10 µM.

And the Kd [4]?
The Kd was > 10 µM.

And the Kd [5]?
Its Kd is > 10 µM.

What about the Kd [6] of the same compound?
The Kd was > 10 µM.

What about the Kd [7] of the same compound?
Its Kd is > 10 µM.

And the Kd [8]?
The Kd was > 10 µM.

What about the Kd [9] of the same compound?
The Kd was > 10 µM.

What about the Kd [10] of the same compound?
Its Kd is > 10 µM.

Nc1nc(Nc2ccc(S(N)(=O)=O)cc2)nn1C(=O)c1c(F)cccc1F [JNJ-7706621] was tested. Which Kd [2] did it give?
The Kd was > 10 µM.

What about the Kd [5] of the same compound?
The Kd was 3.6 µM.

What about the Kd [8] of the same compound?
Its Kd is > 10 µM.

And the Kd [10]?
Its Kd is 3.6 µM.

CCOc1cc2ncc(C#N)c(Nc3ccc(F)c(Cl)c3)c2cc1NC(=O)/C=C/CN(C)C [PELITINIB] was tested. Which Kd [1] did it give?
The Kd was > 10 µM.

And the Kd [2]?
The Kd was > 10 µM.

What about the Kd [3] of the same compound?
The Kd was > 10 µM.

What about the Kd [4] of the same compound?
The Kd was > 10 µM.

What about the Kd [5] of the same compound?
The Kd was > 10 µM.

What about the Kd [6] of the same compound?
The Kd was > 10 µM.

And the Kd [7]?
The Kd was > 10 µM.

What about the Kd [8] of the same compound?
Its Kd is > 10 µM.

And the Kd [9]?
Its Kd is > 10 µM.

What about the Kd [10] of the same compound?
The Kd was 0.1 µM.

For Oc1ccc(-c2nc(-c3ccncc3)c(-c3ccc(F)cc3)[nH]2)cc1 [SB-202190], which Kd [1] is on record?
Its Kd is > 10 µM.

And the Kd [2]?
The Kd was > 10 µM.

What about the Kd [3] of the same compound?
Its Kd is > 10 µM.

What about the Kd [4] of the same compound?
Its Kd is > 10 µM.

And the Kd [5]?
Its Kd is > 10 µM.

What about the Kd [6] of the same compound?
The Kd was > 10 µM.

What about the Kd [7] of the same compound?
The Kd was > 10 µM.

And the Kd [8]?
The Kd was 6.8 µM.

And the Kd [9]?
The Kd was > 10 µM.

What about the Kd [10] of the same compound?
The Kd was 0.17 µM.

What does the source list for NC(=O)c1ccc(-c2nc(-c3ccc4c(c3)OCO4)c(-c3ccccn3)[nH]2)cc1 [SB-431542]?
Kd [1]: > 10 µM; Kd [2]: > 10 µM; Kd [3]: > 10 µM; Kd [4]: > 10 µM; Kd [5]: > 10 µM; Kd [6]: > 10 µM; Kd [7]: > 10 µM; Kd [8]: > 10 µM; Kd [9]: > 10 µM
